From patent US8143419B2, “Trisubstituted 1,2,4-triazoles” (Janssen Pharmaceutica N. V., priority 2006, dated 2012)
pEC50: −log10 of the molar value.

Assays:
[1] = molecular target: T1, hα7-wt nAChR (Homo sapiens, UniProt P36544); assay: Ca2+ flux imaging (FLIPR) (Protocol A), PAM activity with choline as agonist; type: cell-based; details: for pEC50: "<5" = no top plateau at maximal concentration; for Emax: read-out: % efficacy
T1 construct: expressed in transfected cells
Excerpt: Stable expression in mammalian cells in general and rat GH4C1 cells in particular, of cDNA clones encoding the human α7 wild-type sequence (hα7-wt nAChR) and in which the coding region is placed downstream of a promoter results in the appearance of functional α7 nAChRs on the surface of the mammalian cells. This technique has provided a powerful means of assessing the function of α7 wild-type protein. Given the fact that the cation permeability of the α7 nicotinic receptor preferentially favours calcium, fluorescent imaging of Ca^2+ flux through the hα7-wt nAChR stably expressed in the GH4C1 cell line was used as a first means of assaying modulator activity of the compounds of the present invention.
• Hanks buffered saline solution (HBSS, Invitrogen, Belgium), supplemented with 10 mM HEPES (Invitrogen, Belgium), CaCl2 to a final concentration of 5 mM, 0.1% Bovine serum albumin (Sigma-Aldrich NV, Belgium), 2.5 mM probenecid (Sigma-Aldrich NV, Belgium). b) Calcium-Sensitive Dye—Fluo-4AM • Fluo-4AM (Molecular Probes, USA) was dissolved in DMSO containing 10% Pluronic acid (Molecular Probes, USA) to give a stock solution which was aliquoted and stored at −20° C. until later use. On the day of the experiment Fluo-4AM stock was defrosted and diluted in DMEM/F12 (Invitrogen, Belgium) to give a final concentration of 4 μM. c) 96-Well Plates • BD Biocoat poly-D-lysine 96-well black/clear plates (BD Biosciences, Belgium) d) Calcium Flux Measurement • A Fluorimetric Imaging Plate Reader (FLIPR, Molecular Devices Corporation, Sunnyvale, USA) was used to measure intracellular free-calcium flux signals Method
Monolayers of hα7-wt nAChR-expressing cells were grown in multi-well plates, in particular black-sided, transparent bottomed 96 well plates coated with poly-D-lysine for 24 hours prior to loading with a fluorescent calcium indicator, in a particular embodiment loading with fluo-3 or fluo-4AM for up to 90 minutes, in an even more particular embodiment loading with fluo-4AM for up to 90 minutes, and in a preferred embodiment loading with fluo-4AM for up to 60 minutes.
PAM activity was detected in real time by applying the compounds to be tested to the loaded cells along with a α7 nicotinic receptor agonist during constant monitoring of cellular fluorescence in a FLIPR. Compounds giving peak fluorescent responses greater than the response due to agonist alone, were considered to be α7 nAChR PAM's. In a particular embodiment, the α7 nicotinic receptor agonist was choline, a more particular embodiment choline applied at a sub-maximal concentration of 100 μM. In a further setting of the present invention the compounds to be tested were applied prior to the α7 nicotinic receptor agonist, in a particular embodiment up to 20 minutes prior to the agonist, a more particular embodiment up to 10 minutes prior to the agonist, and an even more particular embodiment 10 minutes prior to the agonist.
A control response to choline was calculated on each plate from the difference in peak in fluorescence in wells receiving either choline or assay buffer alone. Compounds of the present invention were tested at a concentration range from 0.1 μM to 50 μM. Compounds were considered to have an interesting activity when their efficacy was at least 500% when tested at the concentration where they have a maximal effect, typically between 0.1 μM and 50 μM (the efficacy of 100 μM choline was defined as 100% in the absence of a PAM). The compounds also have a potentiating effect on the response to choline when measured by whole-cell patch clamp electrophysiology in GH4C1 cells stably over-expressing the human wild-type α7 receptor.

[2] = molecular target: T1, hα7-wt nAChR; assay: Ca2+ flux imaging (FDSS) (Protocol B), PAM activity with choline as agonist; type: cell-based; details: for pEC50: "<5" = no top plateau at maximal concentration; for Emax: read-out: % efficacy
Method in brief: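 Cells stably expressing human wild-type α7 nAChR, loaded with fluo-4AM (2 μM final) up to 120 min in HBSS/10 mM HEPES/5 mM CaCl2/0.1% BSA with 5 mM probenecid. Compounds (0.01–30 μM) added up to 10 min before 100 μM choline; peak fluorescence read on FDSS, potentiation expressed relative to choline-alone response (100%).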

T1 sequence (P36544 23-502): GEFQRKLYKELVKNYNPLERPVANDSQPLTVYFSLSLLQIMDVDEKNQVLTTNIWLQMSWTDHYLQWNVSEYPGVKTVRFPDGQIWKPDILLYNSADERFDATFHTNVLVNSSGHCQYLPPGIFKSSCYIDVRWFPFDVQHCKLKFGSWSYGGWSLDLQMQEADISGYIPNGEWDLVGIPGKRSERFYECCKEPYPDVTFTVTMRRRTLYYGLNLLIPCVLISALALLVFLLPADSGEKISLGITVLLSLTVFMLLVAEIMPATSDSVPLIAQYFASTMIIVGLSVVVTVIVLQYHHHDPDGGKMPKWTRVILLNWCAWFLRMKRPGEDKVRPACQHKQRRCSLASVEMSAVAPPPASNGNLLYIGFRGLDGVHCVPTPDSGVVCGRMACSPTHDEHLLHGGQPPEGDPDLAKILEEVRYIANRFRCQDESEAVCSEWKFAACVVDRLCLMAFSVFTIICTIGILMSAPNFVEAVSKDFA

| SMILES | pEC50 [1] | melting point [°C] | Emax [1] [%] | pEC50 [2] | Emax [2] [%] |
| --- | --- | --- | --- | --- | --- |
| OCCn1nc(Nc2cccc(C(F)(F)F)c2)nc1-c1ccc2c(c1)OCCO2 [Compound 3] | 5.50 | 188.3 to 190.3 |  |  |  |
| CN(C)C(=O)CCn1nc(Nc2cccc(C(F)(F)F)c2)nc1-c1ccc2c(c1)OCCO2 [Compound 6] | 6.80 | 195.7 to 196.6 |  |  |  |
| OCCn1nc(Nc2cccc(C(F)(F)F)c2)nc1-c1ccnc(Cl)c1 [Compound 7] | 5.20 |  |  |  |  |
| CNC(=O)CCn1nc(Nc2cccc(C(F)(F)F)c2)nc1-c1ccncc1 [Compound 11] | < 5.00 |  | 938 |  |  |
| CNC(=O)Cn1nc(Nc2cccc(C(F)(F)F)c2)nc1-c1ccc(Cl)cc1Cl [Compound 13] | 5.70 | 179.9 to 182.1 |  |  |  |
| OCCn1nc(Nc2cccc(C(F)(F)F)c2)nc1-c1cccnc1 [Compound 16] | 5.10 | 158.2 to 159 | 583 |  |  |
| Cn1nc(Nc2ccccc2)nc1-c1ccc(Cl)cc1Cl [Compound 18] | < 5.00 | 193 to 194 |  |  |  |
| NC(=O)Cn1nc(Nc2cccc(C(F)(F)F)c2)nc1-c1ccc(Cl)cc1Cl [Compound 20] | < 5.00 | 203.6 to 206.4 |  |  |  |
| CN(C)C(=O)Cn1nc(Nc2cccc(C(F)(F)F)c2)nc1-c1ccc2c(c1)OCCO2 [Compound 23] | < 5.00 |  |  |  |  |
| CC(=O)NCCCn1nc(Nc2ccc(F)c(C(F)(F)F)c2)nc1-c1ccnc(C)c1 [Compound 27] | < 5.00 | 171.2 |  |  |  |
| C[C@@H](O)Cn1nc(Nc2ccc(F)c(C(F)(F)F)c2)nc1-c1ccc(C2CC2)nc1 [Compound 100] | 5.40 |  |  |  |  |
| FCCn1nc(Nc2cccc(OC(F)(F)F)c2)nc1-c1ccnc(C2CC2)c1 [Compound 152] | 5.40 |  |  |  |  |
| CC1(NC(=O)Cn2nc(Nc3cccc(OC(F)(F)F)c3)nc2-c2ccc3c(c2)OCCO3)CC1 [Compound 166] |  | 219.3 |  | 6.70 |  |
| CN(C)C(=O)CCn1nc(Nc2cccc(OC(F)(F)F)c2)nc1-c1ccc(N)c(F)c1 [Compound 167] |  | 157.1 |  | 6.40 |  |
| CN(C)C(=O)CCn1nc(Nc2cccc(OC(F)(F)F)c2)nc1-c1ccncc1 [Compound 168] |  | 178.4 |  | 6.30 |  |
| CC(C)c1ccc(-c2nc(Nc3ccc(F)cc3)nn2CCO)cn1 [Compound 169] |  | 135.1 |  | 5.50 | 762 |

| SMILES | pEC50 [1] | melting point [°C] | Emax [1] [%] | pEC50 [2] | Emax [2] [%] |
| --- | --- | --- | --- | --- | --- |
| CCOc1ccc(-c2nc(Nc3ccc(F)cc3)nn2CCO)cn1 [Compound 170] |  | 162.2 |  | < 5.00 |  |
| OCCn1nc(Nc2ccc(F)cc2)nc1-c1ccc(C2CC2)nc1 [Compound 171] |  | 169.8 |  | 5.60 |  |
| Cc1cc(-c2nc(Nc3cc(F)c(F)c(F)c3)nn2C[C@H](C)O)cc(Cl)n1 [Compound 172] |  | 200 |  | 6.10 | 812 |
| C[C@H](O)Cn1nc(Nc2ccc(F)c(F)c2)nc1-c1ccc(C(=O)N2CCCC2)nc1 [Compound 174] |  | 181.7 |  | < 5.00 | 667 |
| CNC(=O)Cn1nc(Nc2cc(F)cc(F)c2)nc1-c1ccnc(C2CC2)c1 [Compound 179] |  | 222.4 |  | 5.50 |  |
| CCNC(=O)Cn1nc(Nc2cc(F)c(F)c(F)c2)nc1-c1ccnc(NCC)c1 [Compound 180] |  | 259.6 |  | 6.80 |  |
| CCNC(=O)Cn1nc(Nc2cc(F)c(F)c(NCC)c2)nc1-c1ccnc(NCC)c1 [Compound 181] |  | 192.8 |  | 6.10 |  |
| Cc1cc(-c2nc(Nc3ccc(F)c(C)c3)nn2CCC(=O)N(C)C)ccn1 [Compound 184] |  | 158.8 |  | 6.10 |  |
| Cc1cc(-c2nc(Nc3ccc(F)c(F)c3)nn2CCC(=O)N(C)C)ccn1 [Compound 185] |  | 181.3 |  | 6.00 |  |
| Cc1cc(-c2nc(Nc3ccc(F)c(C#N)c3)nn2CCC(=O)N(C)C)ccn1 [Compound 186] |  | 203.9 |  | 6.40 |  |
| COc1cc(Nc2nc(-c3ccnc(C)c3)n(CCC(=O)N(C)C)n2)ccc1F [Compound 187] |  | 137.3 |  | 5.40 |  |
| COc1cc(Nc2nc(-c3ccnc(C)c3)n(CCC(=O)N(C)C)n2)cc(F)c1F [Compound 188] |  | 199.8 |  | 6.10 |  |
| CNc1ccc(-c2nc(Nc3cc(F)c(F)cc3F)nn2CCC(=O)N(C)C)cn1 [Compound 189] |  | 166.7 |  | 6.10 |  |
| CCNc1ccc(-c2nc(Nc3cc(F)c(F)cc3F)nn2CCC(=O)N(C)C)cn1 [Compound 190] |  | 134.2 |  | 6.40 |  |
| CN(C)C(=O)CCn1nc(Nc2ccc(F)c(F)c2)nc1-c1ccc(C(F)(F)F)nc1 [Compound 191] |  | 194.4 |  | 5.90 |  |
| Cc1cc(Nc2nc(-c3ccnc(Cl)c3)n(CCC(=O)N(C)C)n2)ccc1F [Compound 192] |  | 149 |  | 6.20 |  |

Further lines, results first:

| pEC50 [1] | melting point [°C] | Emax [1] [%] | pEC50 [2] | Emax [2] [%] | SMILES |
| --- | --- | --- | --- | --- | --- |
|  | 158.2 |  | 6.10 |  | CN(C)C(=O)CCn1nc(Nc2cc(F)c(F)cc2F)nc1-c1ccc(NC2CC2)nc1 [Compound 193] |
|  | 114.3 to 116.3 |  | 6.50 |  | CN(C)C(=O)CCn1nc(Nc2cccc(F)c2)nc1-c1ccc2c(c1)OCCO2 [Compound 194] |
|  | 167.9 |  | 5.60 |  | CCNc1cc(-c2nc(Nc3ccc4c(c3)OC(F)(F)O4)nn2CC(C)O)ccn1 (stereo not drawn) [Compound 199] |
|  | 227 |  | 5.70 |  | CNC(=O)Cn1nc(Nc2ccc3c(c2)OC(F)(F)O3)nc1-c1ccnc(C)c1 [Compound 200] |
|  | 223.5 |  | 6.00 |  | CCNC(=O)Cn1nc(Nc2ccc3c(c2)OC(F)(F)O3)nc1-c1ccnc(C)c1F [Compound 201] |
|  | 243 |  | 5.50 |  | CNC(=O)Cn1nc(Nc2ccc3c(c2)OC(F)(F)O3)nc1-c1cc(C)ncc1Cl [Compound 202] |
|  | 231.3 |  | 5.50 |  | CNC(=O)Cn1nc(Nc2ccc3c(c2)OC(F)(F)O3)nc1-c1cc(Cl)ncc1Cl [Compound 203] |
|  | 260.1 |  | 6.20 |  | CCNC(=O)Cn1nc(Nc2ccc3c(c2)OC(F)(F)O3)nc1-c1ccnc2c1CCC2 [Compound 204] |
|  | 224.8 |  | 6.10 |  | Cc1cc(-c2nc(Nc3ccc4c(c3)OC(F)(F)O4)nn2CC(=O)NC2CCC2)ccn1 [Compound 205] |
|  | 229.1 |  | 6.20 |  | Cc1cc(-c2nc(Nc3ccc4c(c3)OC(F)(F)O4)nn2CC(=O)NC2CCCC2)ccn1 [Compound 206] |
|  | 219.7 |  | < 5.00 | 811 | Cc1cc(-c2nc(Nc3ccc4c(c3)OC(F)(F)O4)nn2CC(=O)NC2CCCC2O)ccn1 (stereo not drawn) [Compound 207] |
|  | 253.8 |  | 5.30 | 909 | Cc1cc(-c2nc(Nc3ccc4c(c3)OC(F)(F)O4)nn2CC(=O)NC2CCOC2)ccn1 (stereo not drawn) [Compound 208] |
|  | 182.2 |  | 6.40 |  | Cc1cc(-c2nc(Nc3ccc4c(c3)OC(F)(F)O4)nn2CCC(=O)N(C)C)cc(C)n1 [Compound 209] |
|  | 201.5 |  | 6.50 |  | CN(C)C(=O)CCn1nc(Nc2ccc3c(c2)OC(F)(F)O3)nc1-c1ccncc1F [Compound 210] |
|  | 214.2 to 223.5 |  | 5.90 |  | CNC(=O)Cn1nc(Nc2ccnc(C(F)(F)F)c2)nc1-c1ccc2c(c1)OCCO2 [Compound 212] |
